Values belong to the compound of their own block, whether it stands above or below them.
Legend:
[1] = biological target: T1, Carnitine O-palmitoyltransferase 2, mitochondrial (Rattus norvegicus, UniProt P18886); assay: Inhibition of rat CPT2 in rat mitochondria
T1 sequence (P18886 whole entry): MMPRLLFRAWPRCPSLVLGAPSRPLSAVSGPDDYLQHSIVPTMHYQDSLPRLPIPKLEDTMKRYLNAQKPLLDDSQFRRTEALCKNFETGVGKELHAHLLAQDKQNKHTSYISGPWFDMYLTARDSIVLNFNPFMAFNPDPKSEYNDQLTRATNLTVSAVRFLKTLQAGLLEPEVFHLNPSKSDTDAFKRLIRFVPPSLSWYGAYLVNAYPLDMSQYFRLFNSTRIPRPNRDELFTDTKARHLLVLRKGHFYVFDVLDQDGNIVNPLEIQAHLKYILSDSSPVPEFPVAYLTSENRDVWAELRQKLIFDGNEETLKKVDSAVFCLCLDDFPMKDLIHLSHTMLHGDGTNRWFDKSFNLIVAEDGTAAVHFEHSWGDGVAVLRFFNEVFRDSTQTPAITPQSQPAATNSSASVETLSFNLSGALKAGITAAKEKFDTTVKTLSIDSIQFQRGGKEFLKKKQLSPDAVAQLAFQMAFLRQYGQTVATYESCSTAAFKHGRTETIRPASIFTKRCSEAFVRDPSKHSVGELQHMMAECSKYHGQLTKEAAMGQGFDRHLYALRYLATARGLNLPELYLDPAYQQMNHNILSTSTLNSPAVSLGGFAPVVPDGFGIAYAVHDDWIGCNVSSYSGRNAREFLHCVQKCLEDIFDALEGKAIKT

[2] = biological target: T2, Carnitine O-palmitoyltransferase 1, liver isoform (Rattus norvegicus, UniProt P32198); assay: Inhibition of rat CPT1 in rat mitochondria
T2 sequence (P32198 whole entry): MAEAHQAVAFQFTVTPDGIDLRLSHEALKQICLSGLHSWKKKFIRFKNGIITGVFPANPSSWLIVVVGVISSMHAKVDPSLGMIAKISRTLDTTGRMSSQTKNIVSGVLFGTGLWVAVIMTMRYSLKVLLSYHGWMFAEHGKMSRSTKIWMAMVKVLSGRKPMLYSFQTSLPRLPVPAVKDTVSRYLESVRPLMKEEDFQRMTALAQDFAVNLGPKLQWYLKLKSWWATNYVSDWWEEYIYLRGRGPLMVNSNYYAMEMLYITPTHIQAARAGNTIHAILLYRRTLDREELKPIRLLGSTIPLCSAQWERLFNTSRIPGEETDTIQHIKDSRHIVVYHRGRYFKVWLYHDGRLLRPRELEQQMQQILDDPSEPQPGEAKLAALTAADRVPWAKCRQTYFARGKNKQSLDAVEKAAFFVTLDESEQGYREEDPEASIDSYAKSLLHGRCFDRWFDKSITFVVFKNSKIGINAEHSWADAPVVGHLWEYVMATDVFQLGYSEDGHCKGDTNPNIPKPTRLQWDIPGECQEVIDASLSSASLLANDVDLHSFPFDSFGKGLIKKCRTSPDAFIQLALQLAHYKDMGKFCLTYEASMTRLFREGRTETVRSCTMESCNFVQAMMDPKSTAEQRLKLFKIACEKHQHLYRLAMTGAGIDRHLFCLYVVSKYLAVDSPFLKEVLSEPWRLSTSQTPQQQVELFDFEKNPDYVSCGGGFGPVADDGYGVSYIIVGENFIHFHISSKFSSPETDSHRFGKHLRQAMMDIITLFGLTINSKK

[3] = biological target: T3, Carnitine O-palmitoyltransferase 1, muscle isoform (Homo sapiens, UniProt Q92523); assay: Inhibition of human CPT1B
T3 sequence (Q92523 whole entry): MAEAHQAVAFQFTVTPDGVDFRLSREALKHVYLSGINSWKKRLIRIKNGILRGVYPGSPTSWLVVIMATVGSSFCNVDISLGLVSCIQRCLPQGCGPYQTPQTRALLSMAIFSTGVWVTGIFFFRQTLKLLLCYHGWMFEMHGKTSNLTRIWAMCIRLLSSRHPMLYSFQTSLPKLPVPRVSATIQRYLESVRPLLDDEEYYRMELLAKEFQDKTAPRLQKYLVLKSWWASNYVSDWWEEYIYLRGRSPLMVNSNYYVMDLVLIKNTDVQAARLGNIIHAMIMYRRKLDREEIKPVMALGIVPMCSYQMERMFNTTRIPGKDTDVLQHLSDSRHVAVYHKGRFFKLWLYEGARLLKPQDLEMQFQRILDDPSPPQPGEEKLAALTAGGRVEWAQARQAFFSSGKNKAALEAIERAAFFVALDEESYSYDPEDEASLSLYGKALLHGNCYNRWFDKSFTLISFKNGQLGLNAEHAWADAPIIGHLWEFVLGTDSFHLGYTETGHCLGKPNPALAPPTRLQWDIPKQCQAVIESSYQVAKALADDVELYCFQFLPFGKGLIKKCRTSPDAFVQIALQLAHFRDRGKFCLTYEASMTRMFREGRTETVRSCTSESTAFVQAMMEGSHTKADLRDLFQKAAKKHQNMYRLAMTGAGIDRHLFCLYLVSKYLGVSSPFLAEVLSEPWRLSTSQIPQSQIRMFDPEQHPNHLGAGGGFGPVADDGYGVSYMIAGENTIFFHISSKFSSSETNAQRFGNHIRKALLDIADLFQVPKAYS

[4] = biological target: Carnitine O-palmitoyltransferase 1, muscle isoform (Rattus norvegicus) (UniProt Q63704); assay: Inhibition of CPT1 in rat cardiac mitochondria using [3H]carnitine by radiometric method
[5] = biological target: T2, Carnitine O-palmitoyltransferase 1, liver isoform; assay: Inhibition of CPT1 in rat liver mitochondria using [3H]carnitine by radiometric method
[6] = Inhibition of human FAO
[7] = biological target: T4, Carnitine O-palmitoyltransferase 1, liver isoform (Homo sapiens, UniProt P50416); assay: Inhibition of human CPT1A
T4 sequence (P50416 whole entry): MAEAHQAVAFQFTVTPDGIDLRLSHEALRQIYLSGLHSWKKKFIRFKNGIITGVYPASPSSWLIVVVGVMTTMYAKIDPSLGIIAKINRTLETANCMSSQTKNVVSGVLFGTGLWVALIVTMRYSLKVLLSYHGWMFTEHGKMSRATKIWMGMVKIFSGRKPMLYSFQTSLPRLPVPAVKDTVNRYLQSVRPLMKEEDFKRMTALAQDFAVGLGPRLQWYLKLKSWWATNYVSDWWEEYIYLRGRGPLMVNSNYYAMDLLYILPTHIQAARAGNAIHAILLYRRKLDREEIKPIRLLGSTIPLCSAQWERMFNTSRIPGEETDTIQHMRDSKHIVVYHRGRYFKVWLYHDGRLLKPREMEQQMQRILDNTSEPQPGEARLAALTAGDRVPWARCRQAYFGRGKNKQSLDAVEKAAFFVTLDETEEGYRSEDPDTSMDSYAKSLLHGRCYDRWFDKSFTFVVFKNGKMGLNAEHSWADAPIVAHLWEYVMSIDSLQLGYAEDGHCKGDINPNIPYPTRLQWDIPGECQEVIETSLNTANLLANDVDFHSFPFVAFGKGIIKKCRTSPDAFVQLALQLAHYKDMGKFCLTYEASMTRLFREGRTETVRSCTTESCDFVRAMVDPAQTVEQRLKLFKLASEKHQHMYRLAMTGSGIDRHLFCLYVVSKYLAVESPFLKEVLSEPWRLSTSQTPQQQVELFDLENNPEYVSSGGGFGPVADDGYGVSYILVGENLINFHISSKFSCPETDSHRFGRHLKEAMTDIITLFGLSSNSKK

[8] = Inhibition of rat FAO
[9] = biological target: T5, Carnitine O-palmitoyltransferase 2, mitochondrial (Homo sapiens, UniProt P23786); assay: Inhibition of human CPT2
T5 sequence (P23786 whole entry): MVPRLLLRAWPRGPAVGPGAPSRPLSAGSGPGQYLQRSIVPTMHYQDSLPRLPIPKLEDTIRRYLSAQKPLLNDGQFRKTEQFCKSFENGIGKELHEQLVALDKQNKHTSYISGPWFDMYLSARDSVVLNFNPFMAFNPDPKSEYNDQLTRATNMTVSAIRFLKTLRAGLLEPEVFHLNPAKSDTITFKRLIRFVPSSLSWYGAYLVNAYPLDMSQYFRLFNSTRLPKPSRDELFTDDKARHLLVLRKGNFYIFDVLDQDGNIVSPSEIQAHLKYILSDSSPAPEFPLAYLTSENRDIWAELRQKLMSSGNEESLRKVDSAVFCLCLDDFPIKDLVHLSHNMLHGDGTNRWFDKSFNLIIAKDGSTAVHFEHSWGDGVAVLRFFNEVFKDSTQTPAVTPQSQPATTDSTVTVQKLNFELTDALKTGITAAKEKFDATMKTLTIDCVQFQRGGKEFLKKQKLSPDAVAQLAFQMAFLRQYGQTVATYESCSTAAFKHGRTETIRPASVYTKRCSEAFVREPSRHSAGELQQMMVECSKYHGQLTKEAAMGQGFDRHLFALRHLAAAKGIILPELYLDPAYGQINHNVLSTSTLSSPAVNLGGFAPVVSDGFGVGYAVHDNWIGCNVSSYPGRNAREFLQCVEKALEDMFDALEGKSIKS

[10] = biological target: T1, Carnitine O-palmitoyltransferase 2, mitochondrial; assay: Inhibition of CPT2 in rat mitochondria using [3H]carnitine by radiometric method
[11] = tested on: Mus musculus; assay: Induction of weight loss in DIO mouse at 15 mg/kg, ip administered single dose measured 20 hrs post dose (reference value: 2 %); type: functional; details: route intraperitoneal
[12] = biological target: T6, Carnitine O-palmitoyltransferase 1, liver isoform (Homo sapiens) (UniProt P50416); assay: Increase in liver CPT1 activity expressed in yeast mitochondrial extracts
T6 sequence (whole entry): T4 sequence (P50416 whole entry)

[13] = biological target: Carnitine O-palmitoyltransferase 1, liver isoform (Rattus norvegicus) (UniProt P32198); assay: Increase in CPT1 activity in rat hepatocytes using [3H]carnitine by radiometric assay; type: cell-based; details: Hepatocyte
[14] = biological target: Carnitine O-palmitoyltransferase 1, muscle isoform (Homo sapiens) (UniProt Q92523); assay: Increase in muscle CPT1 activity expressed in yeast mitochondrial extracts; details: Muscle tissue
[15] = tested on: Hepatocyte; assay: Increase in palmitate oxidation rat hepatocytes a at 80 uM; type: functional
[16] = tested on: Mus musculus; assay: Increase in energy production in DIO mouse at 15 mg/kg, ip administered single dose; type: functional; details: route intraperitoneal
[17] = Inhibition of FAO in hepatocytes; type: cell-based; details: hepatocyte
[18] = biological target: T1, Carnitine O-palmitoyltransferase 2, mitochondrial; assay: Inhibition of rat CPT2
[19] = biological target: T2, Carnitine O-palmitoyltransferase 1, liver isoform; assay: Inhibition of rat CPT1A

Sequence of Carnitine O-palmitoyltransferase 1, muscle isoform (Rattus norvegicus) (Q63704 whole entry, looked up, canonical isoform): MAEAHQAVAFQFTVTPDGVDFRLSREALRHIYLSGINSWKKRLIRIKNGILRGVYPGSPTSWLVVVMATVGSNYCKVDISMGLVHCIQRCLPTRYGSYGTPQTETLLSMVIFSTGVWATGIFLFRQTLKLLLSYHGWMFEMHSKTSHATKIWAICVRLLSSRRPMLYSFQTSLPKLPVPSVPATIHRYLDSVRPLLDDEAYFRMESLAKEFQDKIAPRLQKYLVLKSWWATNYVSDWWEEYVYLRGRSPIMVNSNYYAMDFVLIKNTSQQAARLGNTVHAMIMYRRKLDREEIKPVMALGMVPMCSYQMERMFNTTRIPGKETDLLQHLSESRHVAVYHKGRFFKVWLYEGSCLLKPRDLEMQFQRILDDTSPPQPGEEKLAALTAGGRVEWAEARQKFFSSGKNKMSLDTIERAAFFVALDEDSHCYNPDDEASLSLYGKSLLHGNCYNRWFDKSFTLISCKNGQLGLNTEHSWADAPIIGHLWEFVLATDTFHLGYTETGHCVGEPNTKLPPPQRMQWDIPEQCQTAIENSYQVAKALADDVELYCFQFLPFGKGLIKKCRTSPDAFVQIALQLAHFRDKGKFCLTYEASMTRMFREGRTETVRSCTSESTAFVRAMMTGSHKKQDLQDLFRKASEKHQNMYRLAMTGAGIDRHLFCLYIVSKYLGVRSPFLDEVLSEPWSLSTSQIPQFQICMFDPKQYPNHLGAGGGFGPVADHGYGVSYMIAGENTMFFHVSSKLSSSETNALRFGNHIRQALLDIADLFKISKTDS

Compound: CCCCCCOc1cccc(OCCCCCC(=O)NC2(CC(=O)[O-])CC[N+](C)(C)CC2)c1
IC50 [17]: 19 µM

Compound: CCCCc1ccc(NC(=O)OCCN2CCCCC2CC(C2CCCCC2)C2CCCCC2)cc1 (stereo unspecified)
IC50 [18]: > 10 µM
IC50 [19]: > 10 µM

Second part, led by results:

IC50 [1]: > 100 µM
IC50 [2]: 250 µM
Compound: COc1cccc2c1C(=O)c1c(O)c3c(c(O)c1C2=O)C[C@@](O)(C(=O)CO)C[C@@H]3O[C@H]1C[C@H](N)[C@H](O)[C@H](C)O1 [DOXORUBICIN]

IC50 [3]: > 100 µM
IC50 [4]: 77 µM
IC50 [5]: 148 µM
IC50 [6]: 22.4 µM
IC50 [7]: > 100 µM
IC50 [8]: 21.4 µM
IC50 [9]: 72.8 µM
IC50 [10]: 79 µM
Compound: C1CCC(C(CC2CCCCN2)C2CCCCC2)CC1 (stereo unspecified) [PERHEXILINE]

Activity [12]: 20%
IC50 [6]: 21.9 µM
Activity [13]: 250%
Activity [14]: 20%
IC50 [8]: > 100 µM
Compound: C=C1C(=O)O[C@H](CCCCCCCC)[C@H]1C(=O)O
Activity [11]: 4.4%
Activity [15]: 750%
Activity [16]: 32.9%
